Results on 17 compounds are retold here after PubChem BioAssay AID248 (DTP/NCI, 2004).

For the experiment, the system named is L1210 leukemia ip in BDF1 mice, survival T/C. The experiment can be described thus: NCI In Vivo Anticancer Drug Screen. Data for tumor model L1210 Leukemia (intraperitoneal) in B6D2F1 (BDF1) mice. The settings on record: endpoint: mean survival time, higher = longer survival. The gist of the method:
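Each compound was tested against a transplantable tumor grown in mice. The endpoint was survival, with treated animals benchmarked against vehicle controls as a simple ratio.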

Setting [1] is: dose: 100.0 mg/kg/injection, schedule: Q01DX001 (ip), vehicle: saline.
The mark [2] stands for this setting: dose: 200.0 mg/kg/injection, schedule: Q01DX001 (ip), vehicle: saline.
The mark [3] stands for this setting: dose: 400.0 mg/kg/injection, schedule: Q01DX001 (ip), vehicle: saline.
Where [4] appears, read: dose: 100.0 mg/kg/injection, schedule: Q01DX009 (ip), vehicle: saline with Tween-80.
Where [5] appears, read: dose: 200.0 mg/kg/injection, schedule: Q01DX009 (ip), vehicle: saline with Tween-80.
[6] abbreviates: dose: 100.0 mg/kg/injection, schedule: Q01DX009 (ip), vehicle: Klucel (hydroxypropylcellulose) (HPC).
Setting [7] is: dose: 100.0 mg/kg/injection, schedule: Q04DX003 (ip), vehicle: Klucel (hydroxypropylcellulose) (HPC).
Setting [8] is: dose: 200.0 mg/kg/injection, schedule: Q01DX009 (ip), vehicle: Klucel (hydroxypropylcellulose) (HPC).
[9] abbreviates: dose: 200.0 mg/kg/injection, schedule: Q04DX003 (ip), vehicle: Klucel (hydroxypropylcellulose) (HPC).
The mark [10] stands for this setting: dose: 400.0 mg/kg/injection, schedule: Q01DX009 (ip), vehicle: Klucel (hydroxypropylcellulose) (HPC).
Where [11] appears, read: dose: 400.0 mg/kg/injection, schedule: Q04DX003 (ip), vehicle: Klucel (hydroxypropylcellulose) (HPC).

Each structure is given as a SMILES string. Where “and” joins values, the source holds several entries; their conditions need not be identical. Equal entries are not always repeated. Inconclusive results and toxic doses are left out.

Regarding `c1cc[c]([Pb]([c]2ccccc2)([c]2ccccc2)[n]2c3ccccc3c3ccccc32)cc1`, the T/C is 99 % of control (dose: 1.56 mg/kg/injection, schedule: Q01DX009 (ip), vehicle: saline with Tween-80); 98 % of control (dose: 3.12 mg/kg/injection, schedule: Q01DX009 (ip), vehicle: saline with Tween-80); 91 % of control (dose: 6.25 mg/kg/injection, schedule: Q01DX009 (ip), vehicle: saline with Tween-80).
For `CCCCCCC1CC(=O)CC(=O)C1`, the T/C is 101 % of control under setting [1], 98 % of control under setting [2] and 95 % of control under setting [3].
Turning to `O=NN(CCCl)C(=O)N[C@H]1CCC[C@@H](C(=O)O)C1`, the T/C was 353 % of control (dose: 18.0 mg/kg/injection, schedule: Q01DX001 (ip), vehicle: Klucel (hydroxypropylcellulose) (HPC)); 426 % of control (dose: 26.0 mg/kg/injection, schedule: Q01DX001 (ip), vehicle: Klucel (hydroxypropylcellulose) (HPC)); 275 % of control (dose: 40.0 mg/kg/injection, schedule: Q01DX001 (ip), vehicle: Klucel (hydroxypropylcellulose) (HPC)); 216 % of control (dose: 60.0 mg/kg/injection, schedule: Q01DX001 (ip), vehicle: Klucel (hydroxypropylcellulose) (HPC)).
For `CCCCCCCCCCCCOC(=O)OCCCCCCCCCCCC`, the T/C by setting is: under setting [4], 91 % of control; (dose: 100.0 mg/kg/injection, schedule: Q04DX003 (ip), vehicle: saline with Tween-80) 97 % of control; under setting [5], 91 % of control; (dose: 200.0 mg/kg/injection, schedule: Q04DX003 (ip), vehicle: saline with Tween-80) 101 % of control; (dose: 400.0 mg/kg/injection, schedule: Q04DX003 (ip), vehicle: saline with Tween-80) 101 % of control.
On to `O=C1CCCC[CH]1[Hg][Cl]` (stereo not drawn), for which the T/C runs as follows: (dose: 1.25 mg/kg/injection, schedule: Q01DX001 (ip), vehicle: saline) 95 % of control; (dose: 2.5 mg/kg/injection, schedule: Q01DX001 (ip), vehicle: saline) 96 % of control; (dose: 5.0 mg/kg/injection, schedule: Q01DX001 (ip), vehicle: saline) 87 % of control.
Consider `O=S(=O)(F)c1ccc(C[P+](c2ccccc2)(c2ccccc2)c2ccccc2)cc1Cl`, for which the T/C is 103 % of control (dose: 12.5 mg/kg/injection, schedule: Q01DX001 (ip), vehicle: carboxymethylcellulose (CMC)); 113 % of control and 117 % of control (dose: 12.5 mg/kg/injection, schedule: Q01DX009 (ip), vehicle: carboxymethylcellulose (CMC)); 97 % of control and 100 % of control (dose: 12.5 mg/kg/injection, schedule: Q04DX002 (ip), vehicle: carboxymethylcellulose (CMC)); 99 % of control (dose: 25.0 mg/kg/injection, schedule: Q01DX001 (ip), vehicle: carboxymethylcellulose (CMC)); 97 % of control and 98 % of control (dose: 25.0 mg/kg/injection, schedule: Q01DX009 (ip), vehicle: carboxymethylcellulose (CMC)); 100 % of control and 103 % of control (dose: 25.0 mg/kg/injection, schedule: Q04DX002 (ip), vehicle: carboxymethylcellulose (CMC)). Also, the T/C is 96 % of control and 102 % of control (dose: 25.0 mg/kg/injection, schedule: Q04DX003 (ip), vehicle: carboxymethylcellulose (CMC)); 99 % of control and 101 % of control and 107 % of control (dose: 50.0 mg/kg/injection, schedule: Q01DX001 (ip), vehicle: carboxymethylcellulose (CMC)); 98 % of control and 103 % of control (dose: 50.0 mg/kg/injection, schedule: Q01DX009 (ip), vehicle: carboxymethylcellulose (CMC)); 100 % of control and 110 % of control (dose: 50.0 mg/kg/injection, schedule: Q04DX002 (ip), vehicle: carboxymethylcellulose (CMC)); 102 % of control and 105 % of control (dose: 50.0 mg/kg/injection, schedule: Q04DX003 (ip), vehicle: carboxymethylcellulose (CMC)); 101 % of control and 91 % of control (dose: 100.0 mg/kg/injection, schedule: Q04DX002 (ip), vehicle: carboxymethylcellulose (CMC)). For the setting “dose: 100.0 mg/kg/injection, schedule: Q04DX003 (ip), vehicle: carboxymethylcellulose (CMC)”, the T/C was 102 % of control and 104 % of control.
`Nc1nc(Cl)nc2c1ncn2Cc1ccccc1`: the T/C by setting is: (dose: 9.5 mg/kg/injection, schedule: Q01DX001 (ip), vehicle: other) 101 % of control; (dose: 19.0 mg/kg/injection, schedule: Q01DX001 (ip), vehicle: other) 105 % of control; (dose: 38.0 mg/kg/injection, schedule: Q01DX001 (ip), vehicle: other) 101 % of control; (dose: 75.0 mg/kg/injection, schedule: Q01DX001 (ip), vehicle: other) 119 % of control.
Take `Cc1ccc(N=Cc2ccccc2O)cc1`: the T/C is 93 % of control (dose: 50.0 mg/kg/injection, schedule: Q01DX001 (ip), vehicle: Klucel (hydroxypropylcellulose) (HPC)); 90 % of control (dose: 100.0 mg/kg/injection, schedule: Q01DX001 (ip), vehicle: Klucel (hydroxypropylcellulose) (HPC)); 93 % of control (dose: 200.0 mg/kg/injection, schedule: Q01DX001 (ip), vehicle: Klucel (hydroxypropylcellulose) (HPC)).
Regarding `O=C(c1ccccc1)c1c2ccccc2c(-c2ccccc2)c2ccccc12`, the T/C is, setting by setting: under setting [6], 101 % of control; under setting [7], 92 % of control; under setting [8], 103 % of control; under setting [9], 89 % of control; under setting [10], 92 % of control; under setting [11], 90 % of control.
For the compound `Cc1cc2nc(CCl)[nH]c2cc1C`, the T/C runs as follows: (dose: 50.0 mg/kg/injection, schedule: Q01DX001 (ip), vehicle: saline) 106 % of control; under setting [1], 108 % of control; under setting [2], 112 % of control.
Consider `CCOC(=O)c1ccc(NC(=O)Nc2c(C)n(C)n(-c3ccccc3)c2=O)cc1`, for which the T/C is 87 % of control under setting [1]; 89 % of control under setting [4]; 89 % of control (dose: 100.0 mg/kg/injection, schedule: Q04DX003 (ip), vehicle: saline); 90 % of control under setting [2]; 86 % of control under setting [5]; 89 % of control (dose: 200.0 mg/kg/injection, schedule: Q04DX003 (ip), vehicle: saline). Besides, the T/C by setting is: under setting [3], 92 % of control; (dose: 400.0 mg/kg/injection, schedule: Q04DX003 (ip), vehicle: saline) 90 % of control.
For the compound `CCCCCCNS(=O)(=O)c1ccc([N+](=O)[O-])cc1`, the T/C reads like this: under setting [7], 100 % of control; under setting [9], 100 % of control; under setting [11], 93 % of control.
With `[N-]=[N+]=CC(=O)NCC(=O)NN=C(CO)CO`, the T/C by setting is: (dose: 180.0 mg/kg/injection, schedule: Q01DX009 (ip), vehicle: water) 118 % of control; (dose: 265.0 mg/kg/injection, schedule: Q01DX009 (ip), vehicle: water) 122 % of control.
`O=C(N/N=C\c1ccc(Cl)cc1Cl)C1CC1`: the T/C by setting is: (dose: 15.0 mg/kg/injection, schedule: Q01DX Z (ip), vehicle: carboxymethylcellulose (CMC)) 97 % of control; (dose: 30.0 mg/kg/injection, schedule: Q01DX Z (ip), vehicle: carboxymethylcellulose (CMC)) 92 % of control; (dose: 30.0 mg/kg/injection, schedule: Q01DX Z (oral), vehicle: carboxymethylcellulose (CMC)) 98 % of control; (dose: 60.0 mg/kg/injection, schedule: Q01DX Z (ip), vehicle: carboxymethylcellulose (CMC)) 95 % of control; (dose: 60.0 mg/kg/injection, schedule: Q01DX Z (oral), vehicle: carboxymethylcellulose (CMC)) 100 % of control; (dose: 120.0 mg/kg/injection, schedule: Q01DX Z (oral), vehicle: carboxymethylcellulose (CMC)) 121 % of control.
On to `CC(C)CCCC(C)C1CCC2C3CC(=O)C45CC4CCC5(C)C3CCC12C` (stereo not drawn), for which the T/C by setting is: (dose: 100.0 mg/kg/injection, schedule: Q04DX003 (ip), vehicle: other) 97 % of control; (dose: 200.0 mg/kg/injection, schedule: Q04DX003 (ip), vehicle: other) 102 % of control; (dose: 400.0 mg/kg/injection, schedule: Q04DX003 (ip), vehicle: other) 108 % of control.
`CN(C)C(=O)Nc1ccc(Cl)cc1Cl`: the T/C was 98 % of control (dose: 100.0 mg/kg/injection, schedule: Q04DX002 (ip), vehicle: saline with Tween-80); 110 % of control (dose: 200.0 mg/kg/injection, schedule: Q04DX002 (ip), vehicle: saline with Tween-80); 121 % of control (dose: 400.0 mg/kg/injection, schedule: Q04DX002 (ip), vehicle: saline with Tween-80).
Take `Cc1ccc(S(=O)(=O)Oc2ccccc2)cc1`: the T/C is 96 % of control under setting [6]; 94 % of control under setting [7]; 100 % of control under setting [8]; 94 % of control under setting [9]; 97 % of control under setting [10]; 92 % of control under setting [11].
